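All cell lines were grown in 96-well plates and treated with compound for 48 hours. TGI is the concentration that stops growth completely.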
Columns and labels:
Test in all cases: NCI tumour cell line growth inhibition, 48 h
[1] = tested on: ACHN renal
[2] = tested on: RXF-631 renal
[3] = tested on: P388 leukemia
[4] = tested on: DU-145 prostate
[5] = tested on: HS 578T breast
[6] = tested on: MDA-MB-231 breast
[7] = tested on: MDA-MB-435
[8] = tested on: MDA-N
[9] = tested on: PC-3 prostate
[10] = tested on: T-47D breast

Work on `Nc1nn(CC(O)CO)c(=O)s1` (centres undefined) yielded a TGI [1] of over 100 µM and a TGI [2] of over 100 µM.
Work on `N/C(=N\N=C\c1cc2c(cc1Cl)OCO2)NO` yielded a TGI [3] of over 91.9 µM.
With `O=C1OC(c2ccc(Cl)cc2)(c2ccc(Cl)cc2)c2c1ccc1ccccc21` the TGI [1] was over 100 µM.
For `CCOC(=O)C1=NN(c2ccc(Cl)cc2)C2=CC(C)=NN(C)C(=S)N21`, the TGI [1] was over 100 µM, the TGI [4] was over 100 µM and the TGI [5] was over 100 µM. The TGI [6] was over 100 µM, the TGI [7] was over 100 µM and the TGI [8] was over 100 µM. For the same compound, the TGI [9] was over 100 µM and the TGI [10] was 94.8 µM.
For `C=CC[N+](CCO)(CCO)CCCCCCCCCCCCCCCCCC`, the TGI [3] was 1.21 µM.
For `COc1ccc(/C=N/n2cnc3c(c2=O)S/C(=C2/SC(=S)N(c4ccc(C)cc4)C2=O)N3c2ccccc2)cc1`, the TGI [1] was over 100 µM.
